# According to PMC3446762 (Viruses, 2012):
# Assays:
# EBOV = details: 20 µM; cited from earlier work
# host cells = details: cited from earlier work
# EBOV Zaire-95 isolate = type: cell-based, Ebola (EBOV)
# MARV Ci67 isolate = type: cell-based, Marburg (MARV)
# HeLa cells [1] = details: human
# HeLa cells [2] = details: human; remark: listed apart in the source
structure (smiles),measurement,setting,value
Cc1cc(NCCN2CCOCC2)c2c(ccc3c2ccc2nc(C)cc(NCCN4CCOCC4)c23)n1 [Compound 1],EBOV inhibition,EBOV,53%
same,toxicity to host cells,host cells,non-toxic to host cells
CCN(CC)CCCNc1cc(C)nc2ccc3c(ccc4nc(C)cc(NCCCN(CC)CC)c43)c12 [Compound 2],EBOV inhibition,EBOV,13%
same,toxicity to host cells,host cells,toxic to host cells
CCN(CC)CCCNc1ccnc2ccc3c(ccc4nccc(NCCCN(CC)CC)c43)c12 [Compound 4],cellular protection during EBOV infection,EBOV Zaire-95 isolate,100%
same,cellular protection during MARV infection,MARV Ci67 isolate,100%
same,"cellular toxicity (reduction in cell number), EBOV assay",HeLa cells [1],80–90%
same,"cellular toxicity (reduction in cell number), MARV assay",HeLa cells [2],80–90%
